± gives the expanded uncertainty stated by the source.
Assay: isobaric coefficient of expansion
Conditions: Liquid, Micro DSCII

CCCC[n+]1ccn(C)c1.O=S(=O)([N-]S(=O)(=O)C(F)(F)F)C(F)(F)F
isobaric coefficient of expansion
Conditions	5000 kPa	10000 kPa	15000 kPa	20000 kPa	25000 kPa	30000 kPa	35000 kPa	40000 kPa	45000 kPa	50000 kPa
278.15 K	0.000672 ± 1.6e-05 1/K	0.000661 ± 1.6e-05 1/K	0.000651 ± 1.6e-05 1/K	0.000643 ± 1.6e-05 1/K	0.000632 ± 1.5e-05 1/K	0.000627 ± 1.5e-05 1/K	0.000618 ± 1.5e-05 1/K	0.000612 ± 1.5e-05 1/K	0.000602 ± 1.5e-05 1/K	0.000594 ± 1.5e-05 1/K
288.15 K	0.000665 ± 1.6e-05 1/K	0.000656 ± 1.6e-05 1/K	0.000646 ± 1.6e-05 1/K	0.000638 ± 1.6e-05 1/K	0.000632 ± 1.5e-05 1/K	0.000622 ± 1.5e-05 1/K	0.000615 ± 1.5e-05 1/K	0.000606 ± 1.5e-05 1/K	0.000599 ± 1.5e-05 1/K	0.000594 ± 1.5e-05 1/K
298.15 K	0.000662 ± 1.6e-05 1/K	0.000653 ± 1.6e-05 1/K	0.000642 ± 1.6e-05 1/K	0.000633 ± 1.6e-05 1/K	0.000626 ± 1.5e-05 1/K	0.000616 ± 1.5e-05 1/K	0.000607 ± 1.5e-05 1/K	0.000599 ± 1.5e-05 1/K	0.000592 ± 1.5e-05 1/K	0.000586 ± 1.4e-05 1/K
308.15 K	0.000657 ± 1.6e-05 1/K	0.000647 ± 1.6e-05 1/K	0.000636 ± 1.6e-05 1/K	0.000627 ± 1.5e-05 1/K	0.000617 ± 1.5e-05 1/K	0.00061 ± 1.5e-05 1/K	0.000602 ± 1.5e-05 1/K	0.000595 ± 1.5e-05 1/K	0.000586 ± 1.4e-05 1/K	0.000578 ± 1.4e-05 1/K
318.15 K	0.00065 ± 1.6e-05 1/K	0.000646 ± 1.6e-05 1/K	0.000634 ± 1.6e-05 1/K	0.000623 ± 1.5e-05 1/K	0.000614 ± 1.5e-05 1/K	0.000605 ± 1.5e-05 1/K	0.000597 ± 1.5e-05 1/K	0.000588 ± 1.4e-05 1/K	0.000581 ± 1.4e-05 1/K	0.000573 ± 1.4e-05 1/K
328.15 K	0.000665 ± 1.6e-05 1/K	0.000649 ± 1.6e-05 1/K	0.000636 ± 1.6e-05 1/K	0.000625 ± 1.5e-05 1/K	0.000614 ± 1.5e-05 1/K	0.000603 ± 1.5e-05 1/K	0.000595 ± 1.5e-05 1/K	0.000582 ± 1.4e-05 1/K	0.000578 ± 1.4e-05 1/K	0.000569 ± 1.4e-05 1/K
338.15 K	0.000646 ± 1.6e-05 1/K	0.000635 ± 1.6e-05 1/K	0.000625 ± 1.5e-05 1/K	0.000615 ± 1.5e-05 1/K	0.000605 ± 1.5e-05 1/K	0.000597 ± 1.5e-05 1/K	0.000587 ± 1.4e-05 1/K	0.00058 ± 1.4e-05 1/K	0.000573 ± 1.4e-05 1/K	0.000566 ± 1.4e-05 1/K
348.15 K	0.000653 ± 1.6e-05 1/K	0.000639 ± 1.6e-05 1/K	0.000623 ± 1.5e-05 1/K	0.000613 ± 1.5e-05 1/K	0.000604 ± 1.5e-05 1/K	0.000595 ± 1.5e-05 1/K	0.000586 ± 1.4e-05 1/K	0.000578 ± 1.4e-05 1/K	0.000569 ± 1.4e-05 1/K	0.000563 ± 1.4e-05 1/K

CCCCn1cc[n+](C)c1.O=S(=O)([O-])C(F)(F)F [1-butyl-3-methylimidazolium trifluoromethanesulfonate]
isobaric coefficient of expansion
Conditions	5000 kPa	10000 kPa	15000 kPa	20000 kPa	25000 kPa	30000 kPa	35000 kPa	40000 kPa	45000 kPa	50000 kPa
278.15 K	0.000621 ± 1.5e-05 1/K	0.000612 ± 1.5e-05 1/K	0.000603 ± 1.5e-05 1/K	0.000599 ± 1.5e-05 1/K	0.00059 ± 1.4e-05 1/K	0.000585 ± 1.4e-05 1/K	0.000579 ± 1.4e-05 1/K	0.000575 ± 1.4e-05 1/K	0.000566 ± 1.4e-05 1/K	0.000561 ± 1.4e-05 1/K
288.15 K	0.000617 ± 1.5e-05 1/K	0.000607 ± 1.5e-05 1/K	0.000599 ± 1.5e-05 1/K	0.000593 ± 1.5e-05 1/K	0.000588 ± 1.4e-05 1/K	0.00058 ± 1.4e-05 1/K	0.000574 ± 1.4e-05 1/K	0.000566 ± 1.4e-05 1/K	0.000561 ± 1.4e-05 1/K	0.000558 ± 1.4e-05 1/K
298.15 K	0.00061 ± 1.5e-05 1/K	0.000604 ± 1.5e-05 1/K	0.000595 ± 1.5e-05 1/K	0.000588 ± 1.4e-05 1/K	0.000581 ± 1.4e-05 1/K	0.000574 ± 1.4e-05 1/K	0.000566 ± 1.4e-05 1/K	0.000559 ± 1.4e-05 1/K	0.000554 ± 1.4e-05 1/K	0.000549 ± 1.3e-05 1/K
308.15 K	0.000606 ± 1.5e-05 1/K	0.000597 ± 1.5e-05 1/K	0.000587 ± 1.4e-05 1/K	0.000581 ± 1.4e-05 1/K	0.000574 ± 1.4e-05 1/K	0.000568 ± 1.4e-05 1/K	0.000562 ± 1.4e-05 1/K	0.000556 ± 1.4e-05 1/K	0.000548 ± 1.3e-05 1/K	0.000543 ± 1.3e-05 1/K
318.15 K	0.0006 ± 1.5e-05 1/K	0.000595 ± 1.5e-05 1/K	0.000585 ± 1.4e-05 1/K	0.000579 ± 1.4e-05 1/K	0.000571 ± 1.4e-05 1/K	0.000564 ± 1.4e-05 1/K	0.000557 ± 1.4e-05 1/K	0.000551 ± 1.3e-05 1/K	0.000544 ± 1.3e-05 1/K	0.000539 ± 1.3e-05 1/K
328.15 K	0.000596 ± 1.5e-05 1/K	0.000586 ± 1.4e-05 1/K	0.000581 ± 1.4e-05 1/K	0.000574 ± 1.4e-05 1/K	0.000565 ± 1.4e-05 1/K	0.000559 ± 1.4e-05 1/K	0.000552 ± 1.4e-05 1/K	0.000544 ± 1.3e-05 1/K	0.000538 ± 1.3e-05 1/K	0.000534 ± 1.3e-05 1/K
338.15 K	0.000594 ± 1.5e-05 1/K	0.000585 ± 1.4e-05 1/K	0.000578 ± 1.4e-05 1/K	0.000571 ± 1.4e-05 1/K	0.000562 ± 1.4e-05 1/K	0.000556 ± 1.4e-05 1/K	0.000548 ± 1.3e-05 1/K	0.000542 ± 1.3e-05 1/K	0.000537 ± 1.3e-05 1/K	0.000532 ± 1.3e-05 1/K
348.15 K	0.000591 ± 1.4e-05 1/K	0.000583 ± 1.4e-05 1/K	0.000574 ± 1.4e-05 1/K	0.000568 ± 1.4e-05 1/K	0.000559 ± 1.4e-05 1/K	0.000552 ± 1.4e-05 1/K	0.000547 ± 1.3e-05 1/K	0.00054 ± 1.3e-05 1/K	0.000535 ± 1.3e-05 1/K	0.00053 ± 1.3e-05 1/K

— the NIST ThermoML archive (doi:10.1021/je900407u)
